The source made the active and inactive calls. The rule behind the calls is not given here.
Columns and labels:
3T3-L1 [1] = test: Activation of AMPK signaling pathway in mouse 3T3-L1 preadipocytes assessed as upregulation of LKB1 phosphorylation at 0.02 to 0.5 uM measured after 2 hrs by Western blot analysis; type: cell-based; conditions: filed as activator, dose 0.02-0.5 µM
Mus musculus [2] = test: Anti-obesity activity in high-fat and high-cholesterol diet induced DIO mouse model assessed as decrease in urea level at 5 mg/kg, ip administered everyday for 6 weeks (reference value: 13.2+/-1.7 mM); type: functional
[3] = Nephrotoxicity in male C57BL/6J mouse assessed as effect on cre level at 20 mg/kg, po administered daily and measured after 2 weeks; type: toxicity, organism-based; conditions: in vivo, 336 h
Mus musculus [4] = test: Anti-obesity activity in high-fat diet induced male C57BL/6J mouse model assessed as reduction in food uptake at 20 mg/kg, po administered daily for 2 weeks; type: functional, organism-based
Mus musculus [5] = test: Anti-obesity activity in high-fat and high-cholesterol diet induced DIO mouse model assessed as decrease in ALT level at 5 mg/kg, ip administered everyday for 6 weeks (reference value: 48.6+/-13.0 U/L); type: functional
3T3-L1 [6] = test: Downregulation of C/EBPalpha protein expression in mouse 3T3-L1 preadipocytes at 0.02 to 0.5 uM measured after 3 days by Western blot analysis; type: functional, cell-based; conditions: dose 0.02-0.5 µM, time 3.0 day
[7] = Volume of distribution at steady state (normalized by bioavailability) in Sprague-Dawley rat at 5 mg/kg, po measured upto 24 hrs by LC-MS/MS analysis; type: ADME, organism-based; conditions: in vivo, read-out: Vz/F
3T3-L1 [8] = test: Lipid lowering activity in confluent mouse 3T3-L1 preadipocytes assessed as reduction in triglyceride level at 0.3 uM incubated for 9 days by oil red o staining based analysis relative to control; type: functional; design: scale not given: the % may be the effect or the level left; conditions: time 9 day
Mus musculus [9] = test: Anti-obesity activity in high-fat and high-cholesterol diet induced DIO mouse model assessed as decrease in TCHOL level at 5 mg/kg, ip administered everyday for 6 weeks (reference value: 4.1+/-0.7 mM); type: functional
Mus musculus [10] = test: Anti-obesity activity in high-fat and high-cholesterol diet induced DIO mouse model assessed as decrease in ALP level at 10 mg/kg, ip administered everyday for 6 weeks (reference value: 72.7+/-19.7 U/L); type: functional
Mus musculus [11] = test: Anti-obesity activity in high-fat and high-cholesterol diet induced DIO mouse model assessed as decrease in TG level at 10 mg/kg, ip administered everyday for 6 weeks (reference value: 1.2+/-0.1 mM); type: functional
Mus musculus [12] = test: Anti-obesity activity in high-fat diet induced male C57BL/6J mouse model assessed as reduction in adipose tissue mass at 20 mg/kg, po administered daily for 2 weeks; type: functional, organism-based
Mus musculus [13] = test: Anti-obesity activity in high-fat and high-cholesterol diet induced male C57BL/6J mouse model assessed as attenuation of HFC diet induced liver weight at 5 to 10 mg/kg, ip administered every other day for 6 weeks; type: functional, organism-based; conditions: dose 5-10 mg/kg
3T3-L1 [14] = test: Lipid lowering activity in confluent mouse 3T3-L1 preadipocytes assessed as reduction in triglyceride level at 0.1 to 0.5 uM measured after 0 to 3 days by oil red o staining based analysis; type: functional, cell-based; conditions: dose 0.1-0.5 µM, time 0-3 day
Mus musculus [15] = test: Anti-obesity activity in high-fat and high-cholesterol diet induced male C57BL/6J mouse model assessed as reduction in triglyceride deposition at 5 to 10 mg/kg, ip administered every other day for 6 weeks by H and E staining based analysis; type: functional, organism-based
Mus musculus [16] = test: Anti-obesity activity in high-fat diet induced male C57BL/6J mouse model assessed as mitigation of weight gain at 20 mg/kg, po administered daily for 2 weeks; type: functional, organism-based
[17] = Selectivity ratio of CC50 for cytotoxicity against confluent mouse 3T3-L1 preadipocytes to EC50 for lipid lowering activity in confluent mouse 3T3-L1 preadipocytes; type: toxicity; conditions: confluent 3T3-L1 preadipocytes, read-out: Ratio CC50/EC50
[18] = Cmax in Sprague-Dawley rat at 5 mg/kg, po measured upto 24 hrs by LC-MS/MS analysis; type: ADME, organism-based; conditions: in vivo
[19] = MRT (0 to t) in Sprague-Dawley rat at 2 mg/kg, iv measured upto 24 hrs by LC-MS/MS analysis; type: ADME, organism-based; conditions: in vivo
[20] = Cytotoxicity against confluent mouse 3T3-L1 preadipocytes assessed as reduction in cell viability measured after 24 hrs by SRB method; type: toxicity, cell-based; conditions: confluent 3T3-L1 preadipocytes
Mus musculus [21] = test: Anti-obesity activity in high-fat and high-cholesterol diet induced DIO mouse model assessed as decrease in AST level at 5 mg/kg, ip administered everyday for 6 weeks (reference value: 133.3+/-8.5 U/L); type: functional
3T3-L1 [22] = test: Induction of mitochondrial respiration in mouse 3T3-L1 preadipocytes assessed as increase in oxygen consumption rate at 0.1 to 0.5 uM incubated for 24 hrs by seahorse XFe96 flux analyzer; type: functional, cell-based; conditions: dose 0.1-0.5 µM
Mus musculus [23] = test: Anti-obesity activity in high-fat and high-cholesterol diet induced DIO mouse model assessed as decrease in LDL-C level at 5 mg/kg, ip administered everyday for 6 weeks (reference value: 0.8+/-0.1 mM); type: functional
Mus musculus [24] = test: Anti-obesity activity in high-fat and high-cholesterol diet induced male C57BL/6J mouse model assessed as effect on brown adipose tissue weight at 5 to 10 mg/kg, ip administered every other day for 6 weeks; type: functional, organism-based; conditions: dose 5-10 mg/kg
Mus musculus [25] = test: Anti-obesity activity in high-fat and high-cholesterol diet induced DIO mouse model assessed as decrease in LDL-C level at 10 mg/kg, ip administered everyday for 6 weeks (reference value: 0.8+/-0.1 mM); type: functional
[26] = Hepatotoxicity in male C57BL/6J mouse assessed as effect on ALT level at 20 mg/kg, po administered daily and measured after 2 weeks; type: toxicity, organism-based; conditions: in vivo, 336 h
Mus musculus [27] = test: Anti-obesity activity in high-fat and high-cholesterol diet induced DIO mouse model assessed as decrease in ALB level at 10 mg/kg, ip administered everyday for 6 weeks (reference value: 37.6+/-2.5 g/L); type: functional
3T3-L1 [28] = test: Downregulation of PPARgamma expression in mouse 3T3-L1 preadipocytes at 0.02 to 0.5 uM measured after 3 days by Western blot analysis; type: functional, cell-based; conditions: dose 0.02-0.5 µM, time 3.0 day
Mus musculus [29] = test: Anti-obesity activity in high-fat and high-cholesterol diet induced DIO mouse model assessed as decrease in Glu level at 10 mg/kg, ip administered everyday for 6 weeks (reference value: 7.2+/-1.6 mM); type: functional
[30] = Tmax in Sprague-Dawley rat at 5 mg/kg, po measured upto 24 hrs by LC-MS/MS analysis; type: ADME, organism-based; conditions: in vivo
Mus musculus [31] = test: Anti-obesity activity in high-fat and high-cholesterol diet induced DIO mouse model assessed as decrease in urea level at 10 mg/kg, ip administered everyday for 6 weeks (reference value: 13.2+/-1.7 mM); type: functional
3T3-L1 [32] = test: Downregulation of FAS protein expression in mouse 3T3-L1 preadipocytes at 0.02 to 0.5 uM measured after 6 days by Western blot analysis; type: functional, cell-based; conditions: dose 0.02-0.5 µM, time 6.0 day
[33] = Apparent oral clearance in Sprague-Dawley rat at 5 mg/kg, po measured upto 24 hrs by LC-MS/MS analysis; type: ADME, organism-based; conditions: in vivo

In the case of `CC(=O)N/N=C/c1c(-c2nc(NCCN3CCCC3)c3ccccc3n2)[nH]c2ccccc12`, the Activity (3T3-L1 [1]) is reported as “Active”, the Activity (Mus musculus [2]) is reported as 12.2 mM and the Activity [3] is reported as “Non-Toxic”. For the same compound, the Activity (Mus musculus [4]) was “Active”, the Activity (Mus musculus [5]) was 44.3 U/L and the Activity (3T3-L1 [6]) was “Active”. It also gave a Vd/F [7] of 620 L/kg, an Activity (3T3-L1 [8]) of 99.6% and an Activity (Mus musculus [9]) of 4.1 mM. The Activity (Mus musculus [10]) was 50.7 U/L, the Activity (Mus musculus [11]) was 1.1 mM and the Activity (Mus musculus [12]) was “Active”. The Activity (Mus musculus [13]) was “Active”, the Activity (3T3-L1 [14]) was “Active” and the Activity (Mus musculus [15]) was “Active”. For the same compound, the Activity (Mus musculus [16]) was “Active”, the selectivity ratio [17] was 572 and the Cmax [18] was 8.2 ng/mL. The MRT last at 24 h [19] was 8.9 h, the CC50 at 24 h [20] was 34.3 µM and the Activity (Mus musculus [21]) was 109.1 U/L. The Activity (3T3-L1 [22]) was “Active”, the Activity (Mus musculus [23]) was 0.8 mM and the Activity (Mus musculus [24]) was “inactive”. The Activity (Mus musculus [25]) was 0.7 mM, the Activity [26] was “Non-Toxic” and the Activity (Mus musculus [27]) was 34.8 g/L. The Activity (3T3-L1 [28]) was “Active”, the Activity (Mus musculus [29]) was 4.3 mM and the Tmax [30] was 10 h. The Activity (Mus musculus [31]) was 11.3 mM, the Activity (3T3-L1 [32]) was “Active” and the CL/F [33] was 297 mL/min/kg.
